# Measured values: ChEMBL document CHEMBL4825707, “Quantum mechanical study on the activation mechanism of human carbonic anhydrase VII cluster model with bis-histamine schiff bases and bis-spinaceamine derivatives” (Bioorg Med Chem, 2021)
# Target: Carbonic anhydrase 7 (Homo sapiens) (UniProt P43166)
# Test: Activation of human carbonic anhydrase VII by stopped flow CO2 hydrase assay
# Conditions: Brain, filed as activator
# Sequence of Carbonic anhydrase 7 (Homo sapiens) (P43166 whole entry): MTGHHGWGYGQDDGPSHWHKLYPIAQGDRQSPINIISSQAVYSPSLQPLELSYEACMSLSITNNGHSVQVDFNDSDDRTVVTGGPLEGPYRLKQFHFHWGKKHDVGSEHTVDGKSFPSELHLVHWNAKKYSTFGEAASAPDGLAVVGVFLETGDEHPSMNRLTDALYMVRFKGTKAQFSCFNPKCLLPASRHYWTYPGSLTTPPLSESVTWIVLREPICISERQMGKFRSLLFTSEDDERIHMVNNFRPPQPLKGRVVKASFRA
row,SMILES,Ka
1,NCCc1c[nH]cn1,37.6 µM
2,C(=N/CCc1c[nH]cn1)/c1cccc(/C=N/CCc2c[nH]cn2)c1,18.7 µM
3,c1nc2c([nH]1)C(c1ccc(C3NCCc4nc[nH]c43)o1)NCC2 (stereo not drawn),0.035 µM
4,C(=N\CCc1c[nH]cn1)/c1ccc(/C=N/CCc2c[nH]cn2)cc1,9.02 µM
5,C(=N/CCc1c[nH]cn1)/c1ccccc1/C=N/CCc1c[nH]cn1,21.3 µM
6,C(=N/CCc1c[nH]cn1)/c1ccc(/C=N/CCc2c[nH]cn2)o1,0.085 µM
7,c1cc(C2NCCc3nc[nH]c32)cc(C2NCCc3nc[nH]c32)c1 (stereo not drawn),0.039 µM
8,c1nc2c([nH]1)C(c1ccc(C3NCCc4nc[nH]c43)cc1)NCC2 (stereo not drawn),0.032 µM
